Source: patent publication US9980943B2, “Methods of treating muscular dystrophy” (BOARD OF REGENTS OF THE NEVADA SYSTEM OF HIGHER EDUCATION, …, priority 2013, dated 2018)

Tests used:
Assay type in all cases: cell-based, mouse
[1] = test system: β-galactosidase in CMV-LacZ C2C12 myotubes; assay: CMV-LacZ secondary screen in C2C12 myotubes (β-Gal stabilizing assay); details: for CMV-LACZ in Myotubes, signal relative to DMSO / fold induction at 5 µM / fold induction at 10 µM / fold induction at 20 µM / fold induction at 40 µM: C2C12 CMV-LacZ myotubes, fold relative to DMSO; for fold induction at 5 µM / fold induction at 10 µM / fold induction at 20 µM / fold induction at 40 µM: Mus musculus; for fold induction at 5 µM: C2C12, read-out: CMV-LACZ in Myotubes, signal relative to DMSO, 5 uM; for fold induction at 10 µM: C2C12, read-out: CMV-LACZ in Myotubes, signal relative to DMSO, 10 uM; for fold induction at 20 µM: C2C12, read-out: CMV-LACZ in Myotubes, signal relative to DMSO, 20 uM; for fold induction at 40 µM: C2C12, read-out: CMV-LACZ in Myotubes, signal relative to DMSO, 40 uM; for CMV-LACZ in Myotubes (β-galactosidase activity relative to DMSO): CMV-LacZ C2C12 myotubes, 96-well format
Outline: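 A secondary screen identifies compounds that stabilize β-gal independently of the native promoter, using CMV-LacZ C2C12 cells. Curves span 0.5–40 μM at six levels, in duplicate.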

[2] = test system: α7 integrin (LacZ reporter in α7+/LacZ myotubes); assay: Myotube α7 integrin FDG assay (Burkin assay in myotubes, 96-well); details: myotubes; for fold induction at 0.5 µM / fold induction at 1 µM / fold induction at 5 µM / fold induction at 10 µM / fold induction at 20 µM / fold induction at 40 µM: Mus musculus, Myotube, read-out: Burkin Assay in Myotubes (signal relative to DMSO)
[3] = test system: α7 integrin (LacZ reporter in α7βgal+/− myoblasts); assay: Myoblast α7+/LacZ integrin FDG assay (Burkin assay in myoblasts, 96-well); details: α7+/LacZ myoblasts, 96-well; for fold induction at 0.5 µM / fold induction at 1 µM / fold induction at 5 µM / fold induction at 10 µM / fold induction at 20 µM / fold induction at 40 µM: Mus musculus, Myoblast, 48 h, read-out: Burkin Assay in Myoblasts, value relative to DMSO

Row | SMILES | CMV-LACZ in Myotubes, signal relative to DMSO ([1]; 5 uM) | CMV-LACZ in Myotubes, signal relative to DMSO ([1]; 10 uM) | CMV-LACZ in Myotubes, signal relative to DMSO ([1]; 20 uM) | CMV-LACZ in Myotubes, signal relative to DMSO ([1]; 40 uM) | Burkin Assay in Myotubes, α7 integrin LacZ reporter signal relative to DMSO ([2]; 0.5 uM) | Burkin Assay in Myotubes, α7 integrin LacZ reporter signal relative to DMSO ([2]; 1 uM) | Burkin Assay in Myotubes, α7 integrin LacZ reporter signal relative to DMSO ([2]; 5 uM) | Burkin Assay in Myotubes, α7 integrin LacZ reporter signal relative to DMSO ([2]; 10 uM) | Burkin Assay in Myotubes, α7 integrin LacZ reporter signal relative to DMSO ([2]; 20 uM) | Burkin Assay in Myotubes, α7 integrin LacZ reporter signal relative to DMSO ([2]; 40 uM) | Burkin Assay in Myoblasts, signal relative to DMSO ([3]; 0.5 uM) | Burkin Assay in Myoblasts, signal relative to DMSO ([3]; 1 uM) | Burkin Assay in Myoblasts, signal relative to DMSO ([3]; 5 uM) | Burkin Assay in Myoblasts, signal relative to DMSO ([3]; 10 uM) | Burkin Assay in Myoblasts, signal relative to DMSO ([3]; 20 uM) | Burkin Assay in Myoblasts, signal relative to DMSO ([3]; 40 uM) | further results
1 | O=C(c1cccs1)N(Cc1ccco1)c1nc(-c2ccc(F)cc2)cs1 [MLS000122749-01] | 1.022 | 1.063 | 0.808 | 1.0025 | 1.042 | 0.9982 | 1.096 | 1.131 | 1.256 | 0.9306 | 1.113 | 1.04 | 1.026 | 1.116 | 1.185 | 0.948 | –
2 | CC1(C)Cc2c(ccc3ccccc23)C(=O)N1 [MLS000525404-01] | – | – | – | – | – | – | – | – | – | – | – | – | – | – | – | – | fold induction at 5 µM [1]: 0.76; fold induction at 10 µM [1]: 0.873; fold induction at 20 µM [1]: 0.841; fold induction at 40 µM [1]: 0.75; fold induction at 0.5 µM ([2]; 0.5 uM): 1.04; fold induction at 1 µM ([2]; 1 uM): 1.04; fold induction at 5 µM ([2]; 5 uM): 1.12; fold induction at 10 µM ([2]; 10 uM): 1.09; fold induction at 20 µM ([2]; 20 uM): 1.19; fold induction at 40 µM ([2]; 40 uM): 1.35; fold induction at 0.5 µM ([3]; 0.5 uM): 1; fold induction at 1 µM ([3]; 1 uM): 1.08; fold induction at 5 µM ([3]; 5 uM): 1.12; fold induction at 10 µM ([3]; 10 uM): 1.28; fold induction at 20 µM ([3]; 20 uM): 1.46; fold induction at 40 µM ([3]; 40 uM): 1.79
3 | C/C(=N/OC(=O)CC(C)C)c1cc(-c2ccc(Cl)cc2)no1 [MLS000721030-01] | – | – | – | – | – | – | – | – | – | – | – | – | – | – | – | – | CMV-LACZ in Myotubes (β-galactosidase activity relative to DMSO) ([1]; 5 uM): 1.111; CMV-LACZ in Myotubes (β-galactosidase activity relative to DMSO) ([1]; 10 uM): 0.9655; CMV-LACZ in Myotubes (β-galactosidase activity relative to DMSO) ([1]; 20 uM): 0.9276; CMV-LACZ in Myotubes (β-galactosidase activity relative to DMSO) ([1]; 40 uM): 0.7917; Burkin Assay in Myotubes (signal relative to DMSO) ([2]; 0.5 uM): 0.9757; Burkin Assay in Myotubes (signal relative to DMSO) ([2]; 1 uM): 1.051; Burkin Assay in Myotubes (signal relative to DMSO) ([2]; 5 uM): 1.121; Burkin Assay in Myotubes (signal relative to DMSO) ([2]; 10 uM): 1.2344; Burkin Assay in Myotubes (signal relative to DMSO) ([2]; 20 uM): 1.1412; Burkin Assay in Myotubes (signal relative to DMSO) ([2]; 40 uM): 1.205; Burkin Assay in Myoblasts, value relative to DMSO ([3]; 0.5 uM): 0.9673; Burkin Assay in Myoblasts, value relative to DMSO ([3]; 1 uM): 0.9348; Burkin Assay in Myoblasts, value relative to DMSO ([3]; 5 uM): 1.027; Burkin Assay in Myoblasts, value relative to DMSO ([3]; 10 uM): 1.166; Burkin Assay in Myoblasts, value relative to DMSO ([3]; 20 uM): 1.025; Burkin Assay in Myoblasts, value relative to DMSO ([3]; 40 uM): 1.122
4 | O=C(O)CCn1cc(/C=C2/NC(=S)N(c3ccccc3)C2=O)c(-c2ccccc2)n1 [MLS000585616-01] | – | – | – | – | – | – | – | – | – | – | – | – | – | – | – | – | fold induction at 5 µM [1]: 0.903; fold induction at 10 µM [1]: 0.791; fold induction at 20 µM [1]: 0.91; fold induction at 40 µM [1]: 0.879; fold induction at 0.5 µM ([2]; 0.5 uM): 0.999; fold induction at 1 µM ([2]; 1 uM): 0.958; fold induction at 5 µM ([2]; 5 uM): 1.58; fold induction at 10 µM ([2]; 10 uM): 1.15; fold induction at 20 µM ([2]; 20 uM): 1.03; fold induction at 40 µM ([2]; 40 uM): 0.962; fold induction at 0.5 µM ([3]; 0.5 uM): 0.681; fold induction at 1 µM ([3]; 1 uM): 0.943; fold induction at 5 µM ([3]; 5 uM): 1.01; fold induction at 10 µM ([3]; 10 uM): 0.977; fold induction at 20 µM ([3]; 20 uM): 0.935; fold induction at 40 µM ([3]; 40 uM): 0.932
5 | COc1ccc(Cl)cc1NC(=O)CC(=O)Nc1cc(Cl)ccc1OC [MLS001166704-01] | 1.088 | 1.1553 | 1.4595 | 1.0685 | 1.166 | 1.268 | 0.8936 | 1.065 | 0.7918 | 0.81 | 1.109 | 1.165 | 0.8499 | 0.7652 | 0.5747 | 0.4394 | –
6 | O=c1oc2c(-c3cccc(F)c3)cc(O)cc2s1 [MLS000680049-01] | 1.127 | 1.106 | 1.4405 | 0.4315 | 0.8875 | 1.056 | 1.047 | 1.22 | 0.8731 | 0.4379 | 0.9998 | 1.103 | 0.9693 | 0.9727 | 0.7493 | 0.6354 | –
7 | CC1(C)CC(=O)C=C(Nc2ccc(C(=O)O)c(O)c2)C1 [MLS001198693-01] | 1.092 | 0.9258 | 1.025 | 1.112 | 0.96 | 0.9048 | 1.011 | 0.9514 | 0.9319 | 1.116 | 0.9617 | 0.5426 | 0.9229 | 0.9137 | 0.9351 | 0.9164 | –
8 | COc1ccc(S(=O)(=O)Nc2ccc(S(=O)(=O)Nc3nccs3)cc2)cc1 [MLS001218795-01] | 0.9553 | 1.023 | 1.2115 | 0.989 | 0.9648 | 0.9363 | 0.9778 | 0.9991 | 0.9463 | 0.9606 | 1.024 | 0.9596 | 0.8609 | 0.9116 | 0.9353 | 0.9876 | –
